Assay results published in PubChem BioAssay (NCI).
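Grown in 96-well plates, cells were treated for 48 hours with each compound at five concentrations. Insufficient inhibition: endpoint recorded as highest concentration tested. At the TGI there is no net growth.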

Experiments:
Assay in all cases: NCI anticancer screen, dose series, 48 h
786-0 renal = test system: 786-0 renal
A498 renal = test system: A498 renal
A549 NSCLC = test system: A549 NSCLC
ACHN renal = test system: ACHN renal
CCRF-CEM leukemia = test system: CCRF-CEM leukemia
COLO 205 colon = test system: COLO 205 colon
DU-145 prostate = test system: DU-145 prostate
EKVX NSCLC = test system: EKVX NSCLC
HCC-2998 colon = test system: HCC-2998 colon
HCT-116 colon = test system: HCT-116 colon
HCT-15 colon = test system: HCT-15 colon
HOP-62 NSCLC = test system: HOP-62 NSCLC
HOP-92 NSCLC = test system: HOP-92 NSCLC
HS 578T breast = test system: HS 578T breast
HT29 colon = test system: HT29 colon
K-562 leukemia = test system: K-562 leukemia
KM12 colon = test system: KM12 colon
M14 melanoma = test system: M14 melanoma
MALME-3M melanoma = test system: MALME-3M melanoma
MDA-MB-231 breast = test system: MDA-MB-231 breast
MDA-MB-435 = test system: MDA-MB-435
MDA-N = test system: MDA-N
MOLT-4 leukemia = test system: MOLT-4 leukemia
NCI-H226 lung = test system: NCI-H226 lung
NCI-H23 lung = test system: NCI-H23 lung
NCI-H522 lung = test system: NCI-H522 lung
OVCAR-3 ovarian = test system: OVCAR-3 ovarian
OVCAR-4 ovarian = test system: OVCAR-4 ovarian
OVCAR-5 ovarian = test system: OVCAR-5 ovarian
PC-3 prostate = test system: PC-3 prostate
RPMI-8226 leukemia = test system: RPMI-8226 leukemia
RXF 393 renal = test system: RXF 393 renal
SF-268 CNS = test system: SF-268 CNS
SF-539 CNS = test system: SF-539 CNS
SK-MEL-2 melanoma = test system: SK-MEL-2 melanoma
SK-MEL-5 melanoma = test system: SK-MEL-5 melanoma
SN12C renal = test system: SN12C renal
SNB-19 CNS = test system: SNB-19 CNS
SR leukemia = test system: SR leukemia
SW-620 colon = test system: SW-620 colon
T-47D breast = test system: T-47D breast
TK-10 renal = test system: TK-10 renal
U251 CNS = test system: U251 CNS
UO-31 renal = test system: UO-31 renal
BT-549 breast = test system: BT-549 breast
CAKI-1 renal = test system: CAKI-1 renal
HL-60(TB) leukemia = test system: HL-60(TB) leukemia
IGROV1 ovarian = test system: IGROV1 ovarian
LOX IMVI melanoma = test system: LOX IMVI melanoma
MCF7 breast = test system: MCF7 breast
NCI-H460 lung = test system: NCI-H460 lung
NCI/ADR-RES ovarian = test system: NCI/ADR-RES ovarian
OVCAR-8 ovarian = test system: OVCAR-8 ovarian
SF-295 CNS = test system: SF-295 CNS
SK-MEL-28 melanoma = test system: SK-MEL-28 melanoma
SK-OV-3 ovarian = test system: SK-OV-3 ovarian
SNB-75 CNS = test system: SNB-75 CNS
UACC-257 melanoma = test system: UACC-257 melanoma
UACC-62 melanoma = test system: UACC-62 melanoma

CC(C)C1=CC23CCC4C(C)(C(=O)O)CCCC4(C)C2CC1C1C(=O)N(c2ccccc2N2C(=O)C4C5CC6C7(C)CCCC(C)(C(=O)O)C7CCC6(C=C5C(C)C)C4C2=O)C(=O)C13 (centres undefined)
TGI (786-0 renal): 62.8 µM
TGI (A498 renal): 13.6 µM
TGI (A549 NSCLC): 38.7 µM
TGI (ACHN renal): 21.8 µM
TGI (CCRF-CEM leukemia): 22.1 µM
TGI (COLO 205 colon): 17.8 µM
TGI (DU-145 prostate): 21.8 µM
TGI (EKVX NSCLC): 17.9 µM
TGI (HCC-2998 colon): 16.1 µM
TGI (HCT-116 colon): 18.2 µM
TGI (HCT-15 colon): 29.8 µM
TGI (HOP-62 NSCLC): 18.9 µM
TGI (HOP-92 NSCLC): 32.5 µM
TGI (HS 578T breast): 34.1 µM
TGI (HT29 colon): 10.6 µM
TGI (K-562 leukemia): 73 µM
TGI (KM12 colon): 13.8 µM
TGI (M14 melanoma): 19.8 µM
TGI (MALME-3M melanoma): 28.3 µM
TGI (MDA-MB-231 breast): 32.3 µM
TGI (MDA-MB-435): 13.1 µM
TGI (MDA-N): 19.4 µM
TGI (MOLT-4 leukemia): 14.2 µM
TGI (NCI-H226 lung): 30.2 µM
TGI (NCI-H23 lung): 11.6 µM
TGI (NCI-H522 lung): 23 µM
TGI (OVCAR-3 ovarian): 23.4 µM
TGI (OVCAR-4 ovarian): 38.8 µM
TGI (OVCAR-5 ovarian): 25 µM
TGI (PC-3 prostate): 14 µM
TGI (RPMI-8226 leukemia): > 100 µM
TGI (RXF 393 renal): 32.1 µM
TGI (SF-268 CNS): 16.5 µM
TGI (SF-539 CNS): 12.5 µM
TGI (SK-MEL-2 melanoma): 26.1 µM
TGI (SK-MEL-5 melanoma): 17.5 µM
TGI (SN12C renal): 24.8 µM
TGI (SNB-19 CNS): 16 µM
TGI (SR leukemia): 17.3 µM
TGI (SW-620 colon): 30.6 µM
TGI (T-47D breast): 42.5 µM
TGI (TK-10 renal): 27.3 µM
TGI (U251 CNS): 12 µM
TGI (UO-31 renal): 32.3 µM

N#CC(=C1CCN(CCCC(=O)c2ccc(F)cc2)CC1)c1ccccc1
TGI (786-0 renal): > 100 µM
TGI (A498 renal): > 100 µM
TGI (A549 NSCLC): > 100 µM
TGI (ACHN renal): > 100 µM
TGI (BT-549 breast): > 100 µM
TGI (CAKI-1 renal): > 100 µM
TGI (CCRF-CEM leukemia): > 100 µM
TGI (COLO 205 colon): > 100 µM
TGI (DU-145 prostate): > 100 µM
TGI (EKVX NSCLC): > 100 µM
TGI (HCC-2998 colon): > 100 µM
TGI (HCT-116 colon): > 100 µM
TGI (HCT-15 colon): > 100 µM
TGI (HL-60(TB) leukemia): > 100 µM
TGI (HOP-92 NSCLC): > 100 µM
TGI (HS 578T breast): > 100 µM
TGI (HT29 colon): > 100 µM
TGI (IGROV1 ovarian): > 100 µM
TGI (K-562 leukemia): > 100 µM
TGI (KM12 colon): > 100 µM
TGI (LOX IMVI melanoma): > 100 µM
TGI (MALME-3M melanoma): > 100 µM
TGI (MCF7 breast): > 100 µM
TGI (MDA-MB-231 breast): > 100 µM
TGI (MDA-MB-435): > 100 µM
TGI (MOLT-4 leukemia): > 100 µM
TGI (NCI-H226 lung): > 100 µM
TGI (NCI-H23 lung): > 100 µM
TGI (NCI-H460 lung): > 100 µM
TGI (NCI-H522 lung): 95.2 µM
TGI (NCI/ADR-RES ovarian): > 100 µM
TGI (OVCAR-4 ovarian): > 100 µM
TGI (OVCAR-5 ovarian): > 100 µM
TGI (OVCAR-8 ovarian): > 100 µM
TGI (PC-3 prostate): > 100 µM
TGI (RPMI-8226 leukemia): > 100 µM
TGI (RXF 393 renal): > 100 µM
TGI (SF-268 CNS): > 100 µM
TGI (SF-295 CNS): > 100 µM
TGI (SF-539 CNS): > 100 µM
TGI (SK-MEL-2 melanoma): > 100 µM
TGI (SK-MEL-28 melanoma): > 100 µM
TGI (SK-MEL-5 melanoma): > 100 µM
TGI (SK-OV-3 ovarian): > 100 µM
TGI (SN12C renal): > 100 µM
TGI (SNB-19 CNS): > 100 µM
TGI (SNB-75 CNS): > 100 µM
TGI (SR leukemia): > 100 µM
TGI (SW-620 colon): > 100 µM
TGI (T-47D breast): > 100 µM
TGI (TK-10 renal): > 100 µM
TGI (U251 CNS): > 100 µM
TGI (UACC-257 melanoma): > 100 µM
TGI (UACC-62 melanoma): > 100 µM
TGI (UO-31 renal): > 100 µM
